Results from ChEMBL document CHEMBL1128608, “Syntheses and biological properties of novel aza-podophyllotoxin analogs prossessing pronounced antitumor activity” (Bioorg Med Chem Lett, 1995).
Converted amounts (≈) assume the structure as drawn.

Columns and labels:
[1] = test system: L1210; assay: Tested for in vitro cytotoxicity against L1210 murine leukemia cells in mice; assay type: functional, cell-based; settings: Mus musculus
[2] = test system: Mus musculus; assay: Assayed for antitumor activity against P388 leukemia in mice at a dose of 25 mg/kg/injection; assay type: functional
[3] = test system: Mus musculus; assay: Assayed for antitumor activity against P388 leukemia in mice at a dose of 50 mg/kg/injection; assay type: functional
[4] = test system: Mus musculus; assay: Assayed for antitumor activity against P388 leukemia in mice at a dose of 5 mg/kg/injection; assay type: functional
[5] = test system: Mus musculus; assay: Assayed for antitumor activity against P388 leukemia in mice at a dose of 100 mg/kg/injection; Toxic, T/C<85%; assay type: toxicity, organism-based; settings: in vivo
[6] = test system: Mus musculus; assay: Assayed for antitumor activity against P388 leukemia in mice at a dose of 10 mg/kg/injection; assay type: functional
[7] = test system: Mus musculus; assay: Assayed for antitumor activity against P388 leukemia in mice at a dose of 100 mg/kg/injection; assay type: functional
[8] = test system: Mus musculus; assay: Assayed for antitumor activity against P388 leukemia in mice at a dose of 250 mg/kg/injection; Toxic, T/C<85%; assay type: toxicity, organism-based; settings: in vivo
[9] = test system: Mus musculus; assay: Assayed for antitumor activity against P388 leukemia in mice at a dose of 250 mg/kg/injection; assay type: functional
[10] = test system: Mus musculus; assay: Assayed for antitumor activity against P388 leukemia in mice at a dose of 2.5 mg/kg/injection; assay type: functional
[11] = test system: Mus musculus; assay: Tested for antitumor activity against B16 melanoma in mice, at a dose of 100 mg/kg given intraperitoneally; assay type: functional; settings: route intraperitoneal
[12] = test system: Mus musculus; assay: Tested for antitumor activity against B16 melanoma in mice, at a dose of 50 mg/kg given intraperitoneally; assay type: functional; settings: route intraperitoneal
[13] = test system: Mus musculus; assay: Tested for antitumor activity against vincristine-resistant P388 leukemia (P388/VCR) in mice, at a dose of 10 mg/kg given intraperitoneally; assay type: functional; settings: route intraperitoneal
[14] = test system: Mus musculus; assay: Tested for antitumor activity against vincristine-resistant P388 leukemia (P388/VCR) in mice, at a dose of 2.5 mg/kg given intraperitoneally; assay type: functional; settings: route intraperitoneal
[15] = test system: Mus musculus; assay: Tested for antitumor activity against vincristine-resistant P388 leukemia (P388/VCR) in mice, at a dose of 25 mg/kg given intraperitoneally; assay type: functional; settings: route intraperitoneal
[16] = test system: Mus musculus; assay: Tested for antitumor activity against vincristine-resistant P388 leukemia (P388/VCR) in mice, at a dose of 5 mg/kg given intraperitoneally; assay type: functional; settings: route intraperitoneal
[17] = Evaluated for the inhibition of microtubule assembly prepared from bovine brain; assay type: functional, Bos taurus
[18] = test system: Mus musculus; assay: Tested for antitumor activity against B16 melanoma in mice, at a dose of 25 mg/kg given intraperitoneally; assay type: functional; settings: route intraperitoneal
[19] = test system: Mus musculus; assay: Tested for antitumor activity against vincristine-resistant P388 leukemia (P388/VCR) in mice, at a dose of 10 mg/kg given intraperitoneally; Toxic, T/C<85%; assay type: toxicity, organism-based; parameters: dose 10 mg/kg, route intraperitoneal; settings: in vivo, ip
[20] = test system: Mus musculus; assay: Assayed for antitumor activity against P388 leukemia in mice at a dose of 50 mg/kg/injection; Toxic, T/C<85%; assay type: toxicity, organism-based; settings: in vivo
[21] = test system: Mus musculus; assay: Tested for antitumor activity against B16 melanoma in mice at a dose of 25 mg/kg given intraperitoneally; assay type: functional; settings: route intraperitoneal
[22] = test system: Mus musculus; assay: Tested for antitumor activity against vincristine-resistant P388 leukemia (P388/VCR) in mice at a dose 1 mg/kg, given intraperitoneally; assay type: functional; settings: route intraperitoneal
[23] = test system: Mus musculus; assay: Tested for antitumor activity against vincristine-resistant P388 leukemia (P388/VCR) in mice at a dose 2.5 mg/kg, given intraperitoneally; assay type: functional; settings: route intraperitoneal
[24] = test system: Mus musculus; assay: Tested for antitumor activity against vincristine-resistant P388 leukemia (P388/VCR) in mice at a dose 5 mg/kg, given intraperitoneally; Toxic, T/C<85%; assay type: toxicity, organism-based; parameters: dose 5 mg/kg, route intraperitoneal; settings: in vivo, ip

SMILES	IC50 [1]	T/C [2]	T/C [3]	T/C [4]	T/C [6]	T/C [7]	T/C [9]	also measured
COc1cc(OC)cc([C@@H]2c3cc4c(cc3N[C@H]3COC(=O)N23)OCCO4)c1	0.028 µg/mL (≈ 0.0728 µM)	147%	199%	114%	131%	–	–	T/C [5]: < 85%
COc1cc(OC)cc([C@@H]2c3cc4c(cc3N[C@@H]3COC(=O)N23)OCO4)c1	0.22 µg/mL (≈ 0.594 µM)	137%	159%	–	123%	214%	–	–
COc1cc([C@@H]2c3cc4c(cc3N[C@@H]3COC(=O)N23)OCCO4)cc(OC)c1OC	0.052 µg/mL (≈ 0.125 µM)	153%	165%	119%	131%	233%	–	T/C [8]: < 85%
COc1cc([C@@H]2c3cc4c(cc3N(N)[C@@H]3COC(=O)N23)OCO4)cc(OC)c1OC	0.75 µg/mL (≈ 1.81 µM)	122%	147%	–	111%	147%	161%	–
COc1cc([C@@H]2c3cc4c(cc3N[C@H]3COC(=O)N23)OCO4)cc(OC)c1OC	0.05 µg/mL (≈ 0.125 µM)	150%	161%	124%	128%	172%	>326%	T/C [10]: 111%; T/C [11]: 197%; T/C [12]: 153%; T/C [13]: 152%; T/C [14]: 113%; T/C [15]: 152%; T/C [16]: 129%; IC50 [17]: 0.42 µg/mL (≈ 1.05 µM)
COc1cc([C@@H]2c3cc4c(cc3N[C@H]3COC(=O)N23)OCCO4)cc(OC)c1OC	0.055 µg/mL (≈ 0.133 µM)	156%	177%	139%	144%	–	–	T/C [5]: < 85%
COc1cc([C@@H]2c3cc4c(cc3N[C@@H]3COC(=O)N23)OCO4)cc(OC)c1OC	0.42 µg/mL (≈ 1.05 µM)	161%	239%	117%	144%	–	–	T/C [18]: 163%; T/C [12]: 190%; T/C [19]: < 85%; T/C [16]: 137%; IC50 [17]: 1.7 µg/mL (≈ 4.25 µM)
COc1cc(OC)cc([C@@H]2c3cc4c(cc3N[C@@H]3COC(=O)N23)OCCO4)c1	0.08 µg/mL (≈ 0.208 µM)	150%	172%	117%	133%	94%	–	T/C [8]: < 85%
COc1cc([C@@H]2c3cc4c(cc3N(N)[C@H]3COC(=O)N23)OCO4)cc(OC)c1OC	0.09 µg/mL (≈ 0.217 µM)	114%	134%	104%	109%	153%	–	T/C [8]: < 85%
COc1cc(OC)cc([C@@H]2c3cc4c(cc3N[C@H]3COC(=O)N23)OCO4)c1	0.16 µg/mL (≈ 0.432 µM)	139%	156%	–	110%	206%	206%	–
COc1cc(C2c3cc4c(cc3N=C3COC(=O)N32)OCO4)cc(OC)c1OC (configuration not stated)	0.54 µg/mL (≈ 1.36 µM)	109%	111%	104%	109%	109%	144%	–
COc1cc([C@@H]2c3cc4c(cc3[C@H](O)[C@H]3COC(=O)[C@H]23)OCO4)cc(OC)c1OC [PODOFILOX]	0.0036 µg/mL (≈ 0.00869 µM)	111%	–	–	109%	–	–	T/C [20]: < 85%; T/C [10]: 111%; T/C [21]: 110%; T/C [22]: 122%; T/C [23]: 125%; T/C [24]: < 85%; IC50 [17]: 0.13 µg/mL (≈ 0.314 µM)
